Counter-ions that a name gives are not always drawn.
Columns and labels:
aromatase = target: T1, aromatase (Rattus norvegicus, UniProt P22443); assay: Inhibition of aromatase in vivo (inhibition of the preovulatory surge of plasma estradiol levels); conditions: adult female Wistar rats, single oral administration of 10 micrograms/kg on diestrus, plasma estradiol 24 hours later, vs vehicle controls, n = number of independent studies; for inhibition at 0.01 mg/kg: rat, read-out: % inhibition at 10 µg/kg
T1 construct: In the rat, estradiol is physiologically synthesized to high circulating levels; from tissue; host or cells: whole animal: adult female Wistar rats (endogenous aromatase)
T1 sequence (P22443 1-508): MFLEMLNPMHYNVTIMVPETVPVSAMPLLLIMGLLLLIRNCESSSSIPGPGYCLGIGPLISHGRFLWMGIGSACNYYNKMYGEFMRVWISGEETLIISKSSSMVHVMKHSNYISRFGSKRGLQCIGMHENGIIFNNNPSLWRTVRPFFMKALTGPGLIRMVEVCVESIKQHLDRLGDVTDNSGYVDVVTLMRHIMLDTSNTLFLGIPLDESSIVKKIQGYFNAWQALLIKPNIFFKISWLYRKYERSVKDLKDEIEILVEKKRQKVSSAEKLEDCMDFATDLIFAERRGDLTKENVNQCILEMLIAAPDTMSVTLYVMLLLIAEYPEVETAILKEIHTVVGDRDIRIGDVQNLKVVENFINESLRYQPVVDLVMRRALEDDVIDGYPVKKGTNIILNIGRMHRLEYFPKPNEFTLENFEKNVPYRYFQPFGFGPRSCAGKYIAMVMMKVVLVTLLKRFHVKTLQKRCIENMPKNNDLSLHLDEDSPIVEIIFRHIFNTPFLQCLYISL
From the text: Aromatase is the steroidogenic enzyme responsible for the biosynthesis of estradiol, the main female sex hormone among estrogens. In the rat, estradiol is physiologically synthesized to high circulating levels in a particular period during the 4-day estrous cycle : it is the so-called preovulatory surge taking place in the afternoon of proestrus, just before ovulation which occurs during the night between proestrous and estrous phases. A sensitive physiological model for in vivo evaluation of aromatase inhibition was developped based on the inhibition of this preovulatory surge of estradiol levels.
Adult female Wistar rats are monitored for regular 4-day estrous cyclicity by daily vaginal smear examination; after 2 or 3 regular cycles, animals are treated by a single oral administration of the very low discriminative dose of 10 micrograms/kg in a 4 ml/kg volume around 04:00 PM on diestrus, i.e. on the day before proestrus. Precisely 24 hours later, aortic blood samples are drawn under gaseous anesthesia. Plasma estradiol levels are measured by radioimmunoassay with commercially available kits (Diagnostic Systems Laboratories, Webster, Texas, U. S. A.). Control and test groups usually consist of 7 to 10 rats, depending on the number of regularly cycling rats to distribute among study groups. Results are expressed in pg/ml and then in % of inhibition taking the estradiol levels of control animals receiving only the oral vehicle as the 100 % reference to allow comparisons between different independent studies, since the preovulatory surge level may vary in each control group from one study to another between about 25 to 40 pg/ml. Table B : Inhibition of aromatase in vivo

human aromatase = target: T2, human aromatase (Homo sapiens, UniProt P11511); assay: Inhibition of human aromatase in vitro in JEG-3 cells (3H-water release from 1β-3H-androstenedione); type: cell-based; conditions: JEG-3 cell line; 1β-3H-androstenedione 10 nM; 2 hours incubation; mean ± sem
T2 construct: The JEG-3 cell line, derived from a human placental choriocarcinoma, is intrinsically very rich in human aromatase; endogenous in cells; host or cells: JEG-3 (human placental choriocarcinoma)
T2 sequence (P11511 1-503): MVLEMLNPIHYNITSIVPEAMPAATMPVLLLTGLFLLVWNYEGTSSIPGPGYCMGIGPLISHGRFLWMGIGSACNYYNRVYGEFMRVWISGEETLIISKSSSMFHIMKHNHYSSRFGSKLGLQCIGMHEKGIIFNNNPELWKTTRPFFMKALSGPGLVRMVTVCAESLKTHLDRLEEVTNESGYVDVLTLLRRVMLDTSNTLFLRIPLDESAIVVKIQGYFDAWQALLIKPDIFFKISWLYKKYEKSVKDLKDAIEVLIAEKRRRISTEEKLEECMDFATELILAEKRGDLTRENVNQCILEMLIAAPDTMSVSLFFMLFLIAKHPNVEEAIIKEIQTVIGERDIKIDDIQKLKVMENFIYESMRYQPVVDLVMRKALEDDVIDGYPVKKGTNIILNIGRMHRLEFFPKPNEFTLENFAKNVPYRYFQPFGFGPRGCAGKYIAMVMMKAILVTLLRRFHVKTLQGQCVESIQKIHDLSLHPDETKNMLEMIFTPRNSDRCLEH
Procedure: Stocks of JEG-3 cells are grown up to 80 % of confluence as monolayers in plastic flasks in minimum Eagle's medium with 1 g/l glucose and 10 % decomplemented fetal calf serum at pH 7.4 and 37° C, under a 5 % CO2 atmosphere. Then, 24 hours before aromatase activity measurement, JEG-3 cells are distributed for seeding in 96-well microplates (60,000 to 100,000 viable cells in 100 µl of culture medium per well) ; 24 hours later, microplates are rinsed and fresh medium containing the radioactive aromatase substrate (1β-^3H-androstenedione, 10 nM) is added together with test compounds dissolved with 1 % dimethylsulfoxide in a test concentration range between 10^-11 and 10^-4 M in a total volume of 150 µl.
Two hours after the beginning of the incubation, 100 µl of the supernatants are transferred to homologous new 96-well microplates. A solution of dextran-coated charcoal (1 %) is added in each well (100 µl/well) ; after standing for 10 minutes on ice, microplates are centrifuged (1500 g) for 10 more minutes at 4° C. All steroids, including the radioactive substrate and the newly biosynthesized estrogens, are trapped complexed by the charcoal ; only ^3H-water specifically formed during aromatisation of 1β-^3H-androstenedione, involving a specific oxidative step removing the 1β-^3H, remains in the supernatant at this stage. […]

inhibition at 0.01 mg/kg (aromatase) [%] | IC50 (human aromatase) [pM] | % inhibition at 10 µg/kg (aromatase) [%] | Structure (SMILES)
47 | – | – | N#Cc1ccc(N(Cc2ccc(Cl)cc2)n2ccnc2)cc1 [Example 7, 4-[N-(1H-imidazol-1-yl)-N-(4-chlorophenylmethyl)amino]benzonitrile, hydrochloride]
57 to 59 | – | – | N#Cc1ccc(CN(c2ccc(C#N)cc2)n2ccnc2)cc1 [Example 11, 4-[N-(1H-imidazol-1-yl)-N-(4-cyanophenylmethyl)amino]benzonitrile, hydrochloride]
– | 300 ± 40 | 35 | N#Cc1ccc(N(Cc2ccc(Br)cc2)n2cnnc2)cc1 [YM 511, reference compound]
60 | – | – | N#Cc1ccc(N(Cc2ccc(F)c(F)c2)n2ccnc2)cc1 [Example 17, 4-[N-(1H-imidazol-l-yl)-N-(3,4-difluorophenylmethyl)amino]benzonitrile]
57 | – | – | N#Cc1ccc(N(Cc2ccc(C(F)(F)F)cc2)n2ccnc2)cc1 [Example 6, 4-[N-(1H-imidazol-1-yl)-N-(4-trifluoromethylphenylmethyl)amino]-benzonitrile]

Structure (SMILES) | inhibition at 0.01 mg/kg (aromatase) [%] | IC50 (human aromatase) [pM] | % inhibition at 10 µg/kg (aromatase) [%]
N#Cc1ccc(N(Cc2ccc(F)cc2)n2ccnc2)cc1 [Example 14, 4-[N-(1H-imidazol-1-yl)-N-(4-fluorophenylmethyl)amino]benzonitrile, hydrochloride hemihydrate] | 49 to 57 | – | –
CC(C)(C#N)c1cc(Cn2cncn2)cc(C(C)(C)C#N)c1 [Anastrozole, anastrozole, reference compound] | 18 to 33 | – | –

Source: patent EP1572665B1, “1-N-PHENYLAMINO-1H-IMIDAZOLE DERIVATIVES AS AROMATASE INHIBITORS” (LABORATOIRE THERAMEX, priority 2002, dated 2004)
